# System: B16F10 melanoma tumors
# Assay: In vivo biodistribution of 99mTc complexes in C57B16 mice bearing B16F10 melanoma tumors
# Details: for mel/blood: melanoma/blood ratio; for mel/liver: melanoma/liver ratio; for mel/lung: melanoma/lung ratio; for mel/spleen: melanoma/spleen ratio
# Description: To study the tumor uptake of ^99mTc complexes, ^99mTc-Z2-^99mTc-Z4, in vivo biodistribution experiment at 1, 3, 6 hours post intra-venous injection of the ^99mTc-complex were carried out in C57B16 mice bearing B16F10 melanoma tumors. The biodistribution data including melanoma/nontumor (M/NT) ratios for selected organs are summarized in Table 2 as percentage injected dose per gram (% ID/g) (Table 2). […] This is due to washout from no-tumor organs and increased retention in the tumor.
# [1] = 3 h postinjection, listed as 99mTc-Z2
compound,measurement,setting,value
O=C1C[S][99Tc-]23(=[O])[S]CC[N+]2(CCN2CCCCC2)CC[N]13 (stereo not drawn) [Tc-Z2],Eyes,1 h postinjection,13.57 ± 2.1 % ID/g
same,blood,1 h postinjection,0.41 ± 0.08 % ID/g
same,brain,1 h postinjection,0.13 ± 0.03 % ID/g
same,heart,1 h postinjection,0.62 ± 0.10 % ID/g
same,kidney,1 h postinjection,3.50 ± 0.95 % ID/g
same,liver,1 h postinjection,10.28 ± 2.9 % ID/g
same,lung,1 h postinjection,1.29 ± 0.36 % ID/g
same,melanoma (tumor uptake),1 h postinjection,8.52 ± 0.08 % ID/g
same,muscle,1 h postinjection,0.36 ± 0.06 % ID/g
same,spleen,1 h postinjection,0.90 ± 0.22 % ID/g
same,melanoma (tumor uptake),"1 h postinjection, listed as 99mTc-Z2",8.52 % ID/g
same,mel/blood,1 h postinjection,16.49 ± 6.7
same,mel/liver,1 h postinjection,0.64 ± 0.21
same,mel/lung,1 h postinjection,4.93 ± 1.13
same,mel/spleen,1 h postinjection,7.94 ± 2.79
same,Eyes,3 h postinjection,13.55 ± 2.49 % ID/g
same,blood,3 h postinjection,0.22 ± 0.02 % ID/g
same,brain,3 h postinjection,0.06 ± 0.01 % ID/g
same,heart,3 h postinjection,0.22 ± 0.02 % ID/g
same,kidney,3 h postinjection,1.64 ± 0.15 % ID/g
same,liver,3 h postinjection,3.32 ± 0.67 % ID/g
same,lung,3 h postinjection,0.49 ± 0.03 % ID/g
same,melanoma (tumor uptake),3 h postinjection,7.56 ± 1.69 % ID/g
same,muscle,3 h postinjection,0.11 ± 0.01 % ID/g
same,spleen,3 h postinjection,0.93 ± 0.78 % ID/g
same,melanoma (tumor uptake),[1],7.56 % ID/g
same,mel/blood,3 h postinjection,34.80 ± 10.2
same,mel/liver,3 h postinjection,2.29 ± 0.30
same,mel/liver,[1],2.29
same,mel/lung,3 h postinjection,15.48 ± 3.91
same,mel/spleen,3 h postinjection,17.28 ± 10.2
same,Eyes,6 h postinjection,8.89 ± 1.55 % ID/g
same,blood,6 h postinjection,0.12 ± 0.02 % ID/g
same,brain,6 h postinjection,0.03 ± 0.01 % ID/g
same,heart,6 h postinjection,0.10 ± 0.02 % ID/g
same,kidney,6 h postinjection,0.84 ± 0.08 % ID/g
same,liver,6 h postinjection,3.10 ± 0.31 % ID/g
same,lung,6 h postinjection,0.31 ± 0.03 % ID/g
same,melanoma (tumor uptake),6 h postinjection,5.39 ± 0.36 % ID/g
same,muscle,6 h postinjection,0.04 ± 0.01 % ID/g
same,spleen,6 h postinjection,1.19 ± 0.6 % ID/g
same,melanoma (tumor uptake),"6 h postinjection, listed as 99mTc-Z2",3.71 % ID/g
same,mel/blood,6 h postinjection,43.14 ± 4.9
same,mel/liver,6 h postinjection,1.71 ± 0.13
same,mel/lung,6 h postinjection,16.9 ± 1.41
same,mel/spleen,6 h postinjection,5.10 ± 2.59
same,tumor retention (in words),over time,significant tumor retention
O=C1C[S][99Tc-]23(=[O])[S]CC[N+]2(CCCN2CCOCC2)CC[N]13 (stereo not drawn) [Tc-Z3],Eyes,1 h postinjection,4.85 ± 0.63 % ID/g
same,blood,1 h postinjection,0.35 ± 0.11 % ID/g
same,brain,1 h postinjection,0.08 ± 0.02 % ID/g
same,heart,1 h postinjection,0.49 ± 0.11 % ID/g
same,kidney,1 h postinjection,2.62 ± 1.50 % ID/g
same,liver,1 h postinjection,17.75 ± 2.56 % ID/g
same,lung,1 h postinjection,2.08 ± 0.60 % ID/g
same,melanoma (tumor uptake),1 h postinjection,2.36 ± 0.25 % ID/g
same,muscle,1 h postinjection,0.38 ± 0.11 % ID/g
same,spleen,1 h postinjection,3.19 ± 1.05 % ID/g
same,mel/blood,1 h postinjection,7.49 ± 2.79
same,mel/liver,1 h postinjection,0.14 ± 0.03
same,mel/lung,1 h postinjection,1.26 ± 0.57
same,mel/spleen,1 h postinjection,0.85 ± 0.44
same,Eyes,3 h postinjection,4.72 ± 0.62 % ID/g
same,blood,3 h postinjection,0.10 ± 0.02 % ID/g
same,brain,3 h postinjection,0.01 ± 0.00 % ID/g
same,heart,3 h postinjection,0.14 ± 0.02 % ID/g
same,kidney,3 h postinjection,1.02 ± 0.13 % ID/g
same,liver,3 h postinjection,12.58 ± 1.4 % ID/g
same,lung,3 h postinjection,0.87 ± 0.35 % ID/g
same,melanoma (tumor uptake),3 h postinjection,2.74 ± 0.24 % ID/g
same,muscle,3 h postinjection,0.09 ± 0.02 % ID/g
same,spleen,3 h postinjection,3.16 ± 0.46 % ID/g
same,mel/blood,3 h postinjection,26.65 ± 4.9
same,mel/liver,3 h postinjection,0.22 ± 0.03
same,mel/lung,3 h postinjection,3.24 ± 1.79
same,mel/spleen,3 h postinjection,0.87 ± 0.17

# From patent publication US8747810B2, “Compositions and methods for imaging tissues, organs and tumors” (President and Fellows of Harvard College, priority 2009, dated 2014)
